In patent publication US5041653A, “Substituted benzamide radiosensitizers” (SRI International, priority 1990, dated 1991):

What was measured:
[1] = Cytotoxicity test (% cell survival, hypoxic HA-1 cells); type: cell-based, Chinese hamster; conditions: chinese hamster, ha-1 cells, hypoxic, 10 mM test compound, 1 hr at 22° C., hypoxia (N2 containing 5% CO2)
Protocol: (§1) Cytotoxicity tests were also carried out on each of the compounds. The test procedure was as follows: Log-phase Chinese hamster ovary HA-1 cells were trypsinized (0.5% trypsin in Hank's buffered salt solution (HBSS)) and plated in 60 mm Permanox petri dishes in concentrations necessary to yield approximately 30 colonies after experimental treatment. The cells were allowed to attach overnight. Then the medium was removed from each dish and replaced with 2 ml of medium containing varying concentrations of the test compound. The petri dishes were then placed in nylon chamber fitted with gassing ports and, to achieve hypx=oxia, were gassed at room temperature with humidified N2 containing 5% CO2 for 1 hr at a rate of 1 l/min. The cells are then exposed to 10 mM of the test compound for 1 hr at 22° C. The % cell survival is read after such treatment.

[2] = test system: Chinese hamster ovary HA-1 cells; assay: as above; type: cell-based; conditions: 10 mM test compound, 1 hr at 22° C., hypoxia (N2 containing 5% CO2), 60 min, 10000 µM
Protocol: as §1

[3] = test system: EMT6 tumors; assay: In vivo assay for radiosensitization activity (EMT6 tumors in female BALB/c mice, survival of dissected and cultured tumor cells, compared with MIS); design: key to Radiosensitization (score 0 to 4 vs MIS): 0: No radiosensitization; 1: Minimal radiosensitization (some radiosensitization relative to controls but lowest survival>3×lowest survival with MIS); 2: Moderate radiosensitization (not good as MIS, but lowest surviving fraction<3×lowest surviving fraction with MIS); 3: Good radiosensitization (equal to MIS); 4: Excellent radiosensitization (superior to MIS); conditions: for Radiosensitization (score 0 to 4 vs MIS): EMT6 tumors, BALB/c mice, 5 mmole/kg or 2/3 of LD50 ip, 2,000 rad at 5 min to 2 hr after injection; for sensitizer enhancement ratio: at a 1-2 mM concentration, comparable to that for MIS
Protocol: The compounds of the invention are tested in vivo for radiosensitization activity by the assay of Brown, J. M., Radiation Res (1975) 64:633-47, incorporated herein by reference. For this assay EMT6 tumors in female BALB/c mice weighing 20-25 g are used. These mice are bred under specific pathogen-free conditions and are 3-4 months old at the beginning of each experiment. The EMT6 tumor is grown intradermally in the flank from an inoculation of 2×10^5 tumor cells taken from the 2nd-8th in vitro passage of the tumor cells since removal from the previous in vivo tumor. Two tumors per mouse are implanted, and are used as subject tumors when they reach a volume of approximately […]. At this point the tumors contain approximately 20% hypoxic cells.
Test compounds are compared against MIS in this assay. The test compound is tested at a fixed injected dose of either 5 mmole/kg or 2/3 of the LD50 (whichever is lower), MIS is injected into controls at the same dose. Additional suitable controls of test compound-injected but non-irradiated and saline-injected and irradiated mice are also included. A fixed radiation dose of 2,000 rad is applied at variable intervals of 5 min to 2 hr between injection and irradiation. Typically, irradiation is applied at 5, 10, 15, 20, 30, 45, 60, 90, and 120 min following intraperitoneal administration of both drugs. By using these intervals, the results give an indication of both the optimum time to irradiate and of how the test compound sensitizes in relationship to MIS.
Irradiation of the EMT6 tumors is done by irradiating nonanesthetized tumor-bearing mice in a Plexiglas box. Irradiation conditions are 250 kVp X-rays, 15 mA, FSC 33 cm, added filtration of 0.35 mm Cu, half value layer 1.3 mm Cu, and a dose rate of 317 rad/min.
Radiosensitization activity is judged by survival rate of dissected and cultured tumor cells as follows: The tumor-bearing mice are killed immediately after irradiation, and tumors dissected from the skin, cut into several pieces, and made into a fine brei by high-speed chopping with a razor blade attached to a jigsaw. The brei is added to 30 ml of Hank's buffered salt solution (HBSS) containing 0.02% DNase, 0.05% promase, and 0.02% collagenase. The suspension is stirred for 30 min at 37° C., filtered, and centrifuged at 1,600 rmp for 10 min at 4° C. The cell pellet is resuspended in complete Waymouth's medium plus 121/2% horse serum plus 2-12% fetal calf serum (FCS) and an aliquot mixed with trypan blue and counted with the use of a hemacytometer. Suitable dilutions of this […] plated into 60- or 100-mm polystyrene petri dishes (Lux Scientific Corp) in 5 or 15 ml of medium. After incubation for 13 days, the colonies are fixed and stained, and those containing 50 cells or more are counted. The dilution yielding an average count of 25-100 colonies in a 60 mm dish is used in calculation of results.
The test compound is scored on the scale of 0 to 4 based on how it compares with MIS. The scoring system is:
1: Minimal radiosensitization (some radiosensitization relative to controls but lowest survival>3×lowest survival with MIS)
2: Moderate radiosensitization (not good as MIS, but lowest surviving fraction<3×lowest surviving fraction with MIS)
3: Good radiosensitization (equal to MIS)

## NC(=O)c1cccc(O)c1 [3-hydroxybenzamide]
[1]
  viability at 1 h, 10000 µM: 90%
[2]
  Cytotoxicity % Cell Survival: 77%
[3]
  Radiosensitization (score 0 to 4 vs MIS): 3
  sensitizer enhancement ratio: 1.6

## NC(=O)c1cccc(OCCO)c1 [3-(2-hydroxyethoxy)benzamide]
[1]
  viability at 1 h, 10000 µM: 89%
[3]
  Radiosensitization (score 0 to 4 vs MIS): 3
  sensitizer enhancement ratio: 1.6

## CC(=O)OCCOc1cccc(C(N)=O)c1 [3-(2-acetoylethoxy)benzamide, 3-(2-Acetoxyethoxy)benzamide]
[3]
  sensitizer enhancement ratio: 1.6
